Measured values: patent US8114880B2, “Piperidine or piperazine substituted tetrahydro-naphthalene-1-carboxylic acid MTP inhibiting compounds” (Janssen Pharmaceutica N.V., priority 2006, dated 2012)

Columns and labels:
[1] = tested on: HepG2 cells; assay: Quantification of the secretion of ApoB; type: cell-based; conditions: 24 hours of incubation; for IC50: Homo sapiens, HepG2, 24 h, pIC50 = -log IC50
Protocol: HepG2 cells were cultured in 24-well plates in MEM Rega 3 containing 10% fetal calf serum. At 70% confluency, the medium was changed and the test compound or carrier (DMSO, 0.4% final concentration) was added. After 24 hours of incubation, the medium was transferred to Eppendorf tubes and cleared by centrifugation. A sheep antibody directed against either apoB was added to the supernatant and the mixture was kept at 8° C. for 24 hours. Then, rabbit anti-sheep antibody was added and the immune complex was allowed to precipitate for 24 hours at 8° C. The immunoprecipitate was pelleted by centrifugation for 25 minutes at 1320 g and washed twice with a buffer containing 40 mM Mops, 40 mM NaH2PO4, 100 mM NaF, 0.2 mM DTT, 5 mM EDTA, 5 mM EGTA, 1% Triton-X-100, 0.5% sodium deoxycholate (DOC), 0.1% SDS, 0.2 μM leupeptin and 0.2 μM PMSF. Radioactivity in the pellet was quantified by liquid scintillation counting. The IC50 values are usually converted to pIC50 values (=−log IC50 value) for ease of use.

[2] = molecular target: MTP (Homo sapiens, UniProt P55157); assay: MTP assay (triglyceride transfer from donor to acceptor vesicles); type: biochemical; conditions: MTP activity, percent triglyceride transfer from donor to acceptor vesicles, 37° C.
MTP, sequence (P55157 19-894, species assumed): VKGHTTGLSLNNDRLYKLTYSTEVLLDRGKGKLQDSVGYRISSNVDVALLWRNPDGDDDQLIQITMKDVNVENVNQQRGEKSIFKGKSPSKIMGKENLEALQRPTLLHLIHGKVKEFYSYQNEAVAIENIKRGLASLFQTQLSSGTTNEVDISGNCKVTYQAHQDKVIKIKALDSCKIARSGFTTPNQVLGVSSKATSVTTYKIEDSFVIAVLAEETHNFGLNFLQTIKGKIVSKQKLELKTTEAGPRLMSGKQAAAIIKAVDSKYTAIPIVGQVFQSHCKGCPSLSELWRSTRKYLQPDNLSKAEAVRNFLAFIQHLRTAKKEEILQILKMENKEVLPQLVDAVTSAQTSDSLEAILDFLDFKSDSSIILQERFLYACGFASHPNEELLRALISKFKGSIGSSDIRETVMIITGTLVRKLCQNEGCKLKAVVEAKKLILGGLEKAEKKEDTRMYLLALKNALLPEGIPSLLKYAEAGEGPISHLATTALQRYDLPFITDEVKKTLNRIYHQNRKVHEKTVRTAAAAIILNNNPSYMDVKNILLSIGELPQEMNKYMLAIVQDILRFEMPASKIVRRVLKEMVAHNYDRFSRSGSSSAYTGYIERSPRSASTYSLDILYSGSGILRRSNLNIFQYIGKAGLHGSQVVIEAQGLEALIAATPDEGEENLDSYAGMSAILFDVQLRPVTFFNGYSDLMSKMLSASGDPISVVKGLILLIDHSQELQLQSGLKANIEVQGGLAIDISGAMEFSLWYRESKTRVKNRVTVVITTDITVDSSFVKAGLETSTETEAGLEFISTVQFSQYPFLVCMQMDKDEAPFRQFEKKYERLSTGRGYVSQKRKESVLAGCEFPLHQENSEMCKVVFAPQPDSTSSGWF
MTP, sequence (P07237 18-508 partner, species assumed): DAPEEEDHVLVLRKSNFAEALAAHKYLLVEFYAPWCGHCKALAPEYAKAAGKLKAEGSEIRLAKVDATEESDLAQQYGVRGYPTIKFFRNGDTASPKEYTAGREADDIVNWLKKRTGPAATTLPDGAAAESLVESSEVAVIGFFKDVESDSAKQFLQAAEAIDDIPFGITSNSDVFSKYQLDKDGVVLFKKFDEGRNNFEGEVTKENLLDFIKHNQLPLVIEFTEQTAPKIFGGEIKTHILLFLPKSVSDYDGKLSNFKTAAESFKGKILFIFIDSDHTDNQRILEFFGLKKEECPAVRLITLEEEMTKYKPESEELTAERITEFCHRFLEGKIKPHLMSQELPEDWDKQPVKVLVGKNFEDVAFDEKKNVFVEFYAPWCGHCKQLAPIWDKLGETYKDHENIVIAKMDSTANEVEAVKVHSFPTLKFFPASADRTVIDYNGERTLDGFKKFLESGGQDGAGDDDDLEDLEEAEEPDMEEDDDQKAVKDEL
Summary of the method: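 Radiolabelled triglyceride transfer from donor vesicles (phosphatidylcholine, 7.5 mol % cardiolipin, 0.25 mol % glycerol tri[1-^14C]-oleate) to phosphatidylcholine acceptor vesicles with BSA, pH 7.5 Tris buffer; compounds in DMSO (0.13% final), 5 min preincubation at 37° C before MTP addition. Donor vesicles removed on DEAE-52; acceptor-supernatant ^14C counts give percent transfer.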

Row | Structure (SMILES) | IC50 [1] [µM] | IC50 [2] [µM] | pIC50 ([1]; pIC50 = -log IC50, listed as 8)
1 | COc1ccccc1C(=O)NC1CCN(C(=O)[C@@H]2CC[C@](C(N)=O)(c3ccccc3)c3ccccc32)CC1 (single isomer, unassigned) [Co. No. 43] | 0.267 | 0.0904 | 
2 | COc1ccccc1C(=O)NC1CCN(C(=O)[C@H]2CC[C@@](C(N)=O)(c3ccccc3)c3ccccc32)CC1 (single isomer, unassigned) [Co. No. 44] | 0.106 | > 1 | 
3 | O=C(NC1CCN(C(=O)C2CCC(C(=O)NCc3ccccc3)(c3ccccc3)c3ccccc32)CC1)c1ccccc1 (stereo not drawn) [Co. No. 3] | 0.0805 | 0.0177 | 
4 | CCCNC(=O)C1(c2ccccc2)CCC(C(=O)N2CCC(NC(=O)c3ccccc3)CC2)c2ccccc21 (stereo not drawn) [Co. No. 4] | 0.228 | 0.0424 | 
5 | CCCNC(=O)C1(c2ccccc2)CCC(CN2CCC(NC(=O)c3ccccc3-c3ccc(C(F)(F)F)cc3)CC2)c2ccccc21 (stereo not drawn) [Co. No. 6] | 0.0204 | 0.016 | 
6 | C=CCOC(=O)[C@]1(c2ccccc2)CC[C@@H](C(=O)N2CCC(NC(=O)c3ccccc3OC)CC2)c2ccccc21 [Co. No. 8] |  | 0.00282 | 8.188
7 | CCNC(=O)[C@]1(c2ccccc2)CC[C@@H](C(=O)N2CCC(NC(=O)c3ccccc3-c3ccc(C(F)(F)F)cc3)CC2)c2ccccc21 [Co. No. 10] | 0.00185 | 0.00196 | 
8 | CCNC(=O)[C@]1(c2ccccc2)CC[C@H](C(=O)N2CCC(NC(=O)c3ccccc3-c3ccc(C(F)(F)F)cc3)CC2)c2ccccc21 [Co. No. 11] | > 0.1 | 0.217 | 
9 | CCNC(=O)[C@]1(c2ccccc2)CC[C@@H](CN2CCC(NC(=O)c3ccccc3OC)CC2)c2ccccc21 [Co. No. 15] | 0.186 | 0.0502 | 
10 | CCNC(=O)[C@]1(c2ccccc2)CC[C@@H](CN2CCC(NC(=O)c3ccccc3-c3ccc(C(F)(F)F)cc3)CC2)c2ccccc21 [Co. No. 16] | 0.015 | 0.0032 | 
11 | C=CCOC(=O)[C@]1(c2ccccc2)CC[C@@H](C(=O)N2CCC(NC(=O)c3ccccc3-c3ccc(C(F)(F)F)cc3)CC2)c2ccccc21 [Co. No. 19] | 0.00757 | 0.00463 | 
12 | CCNC(=O)[C@]1(c2ccccc2)CC[C@@H](C(=O)N2CC[C@@H](NC(=O)c3ccccc3OC)[C@@H](OC)C2)c2ccccc21 [Co. No. 20] | 0.0229 | 0.0126 | 
13 | CCNC(=O)[C@]1(c2ccccc2)CC[C@@H](C(=O)N2CCC(NC(=O)c3ccc(Cl)cc3OC)CC2)c2ccccc21 [Co. No. 21] | 0.0276 | 0.00984 | 
14 | CCNC(=O)[C@]1(c2ccccc2)CC[C@@H](C(=O)N2CCC(NC(=O)c3ccccc3C)CC2)c2ccccc21 [Co. No. 22] | 0.155 | 0.0289 | 
15 | CCNC(=O)[C@]1(c2ccccc2)CC[C@@H](C(=O)N2CC[C@@H](NC(=O)c3cc(Cl)c(N)cc3OC)[C@@H](OC)C2)c2ccccc21 [Co. No. 23] | 0.232 | 0.0603 | 
16 | CCOC(=O)[C@]1(c2ccccc2)CC[C@@H](C(=O)N2CCC(NC(=O)c3cc(Cl)c(N)cc3OC)CC2)c2ccccc21 [Co. No. 24] | 0.202 | 0.0548 | 
17 | CCOC(=O)[C@]1(c2ccccc2)CC[C@@H](C(=O)N2CCN(C(=O)c3ccccc3OC)CC2)c2ccccc21 [Co. No. 27] | 0.778 | 0.0652 | 
18 | CCOC(=O)[C@]1(c2ccccc2)CC[C@@H](C(=O)N2CCN(C(=O)c3ccc(C)cc3-c3ccc(C(F)(F)F)cc3)CC2)c2ccccc21 [Co. No. 28] | 0.329 | > 0.1 | 
19 | CCOC(=O)[C@]1(c2ccccc2)CC[C@@H](C(=O)N2CCC(NC(=O)c3ccccc3)CC2)c2ccccc21 [Co. No. 33] | > 1 | > 1 | 
20 | CCOC(=O)[C@@]1(c2ccccc2)CC[C@H](C(=O)N2CCC(NC(=O)c3ccccc3OC)CC2)c2ccccc21 [Co. No. 34] | 0.00379 | 0.00116 | 

Row | Structure (SMILES) | IC50 [1] [µM] | IC50 [2] [µM] | pIC50 ([1]; pIC50 = -log IC50, listed as 8)
21 | CCOC(=O)[C@]1(c2ccccc2)CC[C@@H](C(=O)N2CCC(NC(=O)c3ccccc3OC)CC2)c2ccccc21 [Co. No. 35] | 5.37 | 1.71 | 
22 | CCOC(=O)[C@@]1(c2ccccc2)CC[C@H](C(=O)N2CCC(NC(=O)c3ccccc3O)CC2)c2ccccc21 [Co. No. 36] | 0.0117 | 0.00347 | 
23 | COc1ccccc1C(=O)NC1CCN(C(=O)[C@H]2CC[C@](C(N)=O)(c3ccccc3)c3ccccc32)CC1 [Co. No. 40] | 0.0706 | > 10 | 
24 | CCOC(=O)[C@]1(c2ccccc2)CC[C@@H](C(=O)N2CCC(NC(=O)c3ccccc3O)CC2)c2ccccc21 [Co. No. 42] | 1 | > 10 | 
25 | CCOC(=O)CNC(=O)[C@@]1(c2ccccc2)CC[C@H](C(=O)N2CCC(NC(=O)c3ccccc3OC)CC2)c2ccccc21 [Co. No. 47] | 0.0272 | 0.00237 | 
26 | CCOC(=O)CNC(=O)[C@]1(c2ccccc2)CC[C@@H](C(=O)N2CCC(NC(=O)c3ccccc3OC)CC2)c2ccccc21 [Co. No. 48] | 9.77 | 0.0133 | 
27 | COC(=O)[C@]1(c2ccccc2)CC[C@@H](C(=O)N2CCC(NC(=O)c3cccc(OC)c3OC)CC2)c2ccccc21 [Co. No. 49] | 0.638 | 0.0181 | 
28 | COC(=O)[C@]1(c2ccccc2)CC[C@@H](C(=O)N2CCC(NC(=O)c3cc(OC)ccc3OC)CC2)c2ccccc21 [Co. No. 50] | 0.0161 | 0.0116 | 
29 | COC(=O)[C@]1(c2ccccc2)CC[C@@H](C(=O)N2CCC(NC(=O)c3cc(C)ccc3OC)CC2)c2ccccc21 [Co. No. 51] | 0.00951 | 0.0128 | 
30 | COC(=O)[C@]1(c2ccccc2)CC[C@@H](C(=O)N2CCC(NC(=O)c3cc(OC)ccc3OCC(F)(F)F)CC2)c2ccccc21 [Co. No. 53] | 0.0618 | 0.00964 | 
31 | COC(=O)[C@]1(c2ccccc2)CC[C@@H](C(=O)N2CCC(NC(=O)c3ccccc3OC(F)F)CC2)c2ccccc21 [Co. No. 54] | 0.0658 | 0.0104 | 
32 | COC(=O)[C@]1(c2ccccc2)CC[C@@H](C(=O)N2CCC(NC(=O)c3c(O)cccc3OC)CC2)c2ccccc21 [Co. No. 55] | > 1 | 0.0607 | 
33 | COC(=O)[C@]1(c2ccccc2)CC[C@@H](C(=O)N2CCC(NC(=O)c3cccnc3OC)CC2)c2ccccc21 [Co. No. 56] | 0.00224 | 0.00169 | 
34 | CCOc1ncccc1C(=O)NC1CCN(C(=O)[C@@H]2CC[C@](C(=O)OC)(c3ccccc3)c3ccccc32)CC1 [Co. No. 57] | 0.0697 | 0.00568 | 
35 | CCCOc1cccnc1C(=O)NC1CCN(C(=O)[C@@H]2CC[C@](C(=O)OC)(c3ccccc3)c3ccccc32)CC1 [Co. No. 58] | 0.00204 | 0.149 | 
36 | COC(=O)[C@]1(c2ccccc2)CC[C@@H](C(=O)N2CCC(NC(=O)c3cc(OC)nnc3OC)CC2)c2ccccc21 [Co. No. 59] | 0.225 | > 0.1 | 
37 | COC(=O)[C@]1(c2ccccc2)CC[C@@H](C(=O)N2CCC(NC(=O)c3cc(O)ccc3OC)CC2)c2ccccc21 [Co. No. 61] | 0.286 | > 10 | 
38 | COc1ccccc1C(=O)NC1CCN(C(=O)[C@H]2CC[C@@](C(=O)NCC(=O)OC(C)(C)C)(c3ccccc3)c3ccccc32)CC1 [Co. No. 62] | 0.0421 | 0.000713 | 
39 | COc1ccccc1C(=O)NC1CCN(C(=O)[C@H]2CC[C@@](C(=O)NCC(=O)O)(c3ccccc3)c3ccccc32)CC1 [Co. No. 63] | > 10 | > 1 | 
